Measured values published in publication PMC8968952, “Modulation of ERCC1-XPF Heterodimerization Inhibition via Structural Modification of Small Molecule Inhibitor Side-Chains” (Frontiers in Oncology, 2022).

Columns and labels:
HCT-116 cells = test: Clonogenic survival assay, cyclophosphamide treatment; format: cell-based, human
Method: […] The medium was then replaced with drug and inhibitor-free fresh medium. After incubation for another 9 days to allow for colony formation, the plates were stained with crystal violet, colonies were counted, and plating efficiency and surviving fraction were calculated. Data were plotted using GraphPad Prism version 5.04. software.

CYP2C9 = CYP2C9 (Homo sapiens, UniProt P11712); test: Cytochrome P450 inhibition, CYP2C9; format: in vitro ADME
Method: (§1) The ADME (absorption, distribution, metabolism, and excretion) profile of our lead compound 6 was determined by standard protocols carried out by WuXi AppTec (Shanghai) Co (https://www.wuxiapptec.com/). The following tests were conducted: distribution coefficient (log D at pH 7.4), aqueous solubility (Kinetic), metabolic stability in human liver microsomes and cryopreserved human hepatocytes, bidirectional permeability in Caco-2 cells, serum protein binding, and cytochrome P450 (CYP) inhibition (CYP1A2, CYP2C9, CYP2C19, CYP2D6, and CYP3A4-M).

CYP2C19 = CYP2C19 (Homo sapiens, UniProt P33261); test: Cytochrome P450 inhibition, CYP2C19; format: in vitro ADME
Method: as §1

ERCC1-XPF = molecular target: T1, ERCC1-XPF (Homo sapiens, UniProt Q92889); test: Steady state intrinsic fluorescence quenching binding assay; conditions: excitation 295 nm, emission 330 nm
T1 construct: the final purity of the full-length ERCC1-XPF heterodimer was determined to be ~35%; His6; made in house; host or cells: E. coli BL21(DE3)
T1 sequence (Q92889 1-916): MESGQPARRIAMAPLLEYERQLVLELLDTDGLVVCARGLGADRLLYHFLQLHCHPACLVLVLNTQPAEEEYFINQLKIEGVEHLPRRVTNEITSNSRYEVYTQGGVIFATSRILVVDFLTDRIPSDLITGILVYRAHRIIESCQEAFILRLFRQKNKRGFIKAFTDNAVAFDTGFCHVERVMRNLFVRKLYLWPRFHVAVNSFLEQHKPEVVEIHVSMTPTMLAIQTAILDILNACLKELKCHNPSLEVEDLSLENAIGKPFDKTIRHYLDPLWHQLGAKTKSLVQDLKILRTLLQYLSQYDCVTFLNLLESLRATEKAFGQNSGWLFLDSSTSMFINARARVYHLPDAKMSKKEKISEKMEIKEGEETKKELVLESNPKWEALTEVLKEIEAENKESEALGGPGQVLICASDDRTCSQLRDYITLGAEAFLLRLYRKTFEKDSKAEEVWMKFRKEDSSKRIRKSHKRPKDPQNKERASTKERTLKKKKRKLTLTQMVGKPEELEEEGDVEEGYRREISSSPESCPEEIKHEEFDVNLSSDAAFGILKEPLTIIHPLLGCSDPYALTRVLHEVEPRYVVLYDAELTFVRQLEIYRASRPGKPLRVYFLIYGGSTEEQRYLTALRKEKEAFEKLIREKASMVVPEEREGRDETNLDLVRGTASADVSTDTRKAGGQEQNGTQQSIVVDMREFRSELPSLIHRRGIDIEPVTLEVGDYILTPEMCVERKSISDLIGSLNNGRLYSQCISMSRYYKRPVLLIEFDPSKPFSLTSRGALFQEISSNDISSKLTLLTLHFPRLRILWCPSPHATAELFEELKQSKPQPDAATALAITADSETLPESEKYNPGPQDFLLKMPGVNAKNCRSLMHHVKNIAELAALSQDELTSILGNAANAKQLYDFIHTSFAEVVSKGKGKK
Method: Steady-state fluorescence spectra were measured at room temperature on a PerkinElmer LS-55 spectrofluorometer (Freemont, CA) as previously described ([70]). In studying the effects of inhibitors on protein fluorescence intensities, additions to protein samples were made from inhibitor stock solutions in DMSO, keeping the protein dilution below 3%. Data were plotted using GraphPad Prism version 5.04 software (San Diego, California)
Investigation of the binding of compound 6 to ERCC1-XPF was carried out via intrinsic fluorescence spectroscopy. The tryptophan residues of ERCC1-XPF were irradiated at 295 nm and the emission at 330 nm was monitored. Upon addition of compound 6 quenching of the intrinsic fluorescence of the protein was observed, consistent with ligand binding to a protein. The binding affinity was determined by plotting emission at 330 nm against increasing concentration of compound 6 ( Figure 3C ).

CYP2D6 = CYP2D6 (Homo sapiens, UniProt P10635); test: Cytochrome P450 inhibition, CYP2D6; format: in vitro ADME
Method: as §1

CYP1A2 = molecular target: T2, CYP1A2 (Homo sapiens, UniProt P05177); test: Cytochrome P450 inhibition, CYP1A2; format: in vitro ADME
T2 sequence (P05177 1-516): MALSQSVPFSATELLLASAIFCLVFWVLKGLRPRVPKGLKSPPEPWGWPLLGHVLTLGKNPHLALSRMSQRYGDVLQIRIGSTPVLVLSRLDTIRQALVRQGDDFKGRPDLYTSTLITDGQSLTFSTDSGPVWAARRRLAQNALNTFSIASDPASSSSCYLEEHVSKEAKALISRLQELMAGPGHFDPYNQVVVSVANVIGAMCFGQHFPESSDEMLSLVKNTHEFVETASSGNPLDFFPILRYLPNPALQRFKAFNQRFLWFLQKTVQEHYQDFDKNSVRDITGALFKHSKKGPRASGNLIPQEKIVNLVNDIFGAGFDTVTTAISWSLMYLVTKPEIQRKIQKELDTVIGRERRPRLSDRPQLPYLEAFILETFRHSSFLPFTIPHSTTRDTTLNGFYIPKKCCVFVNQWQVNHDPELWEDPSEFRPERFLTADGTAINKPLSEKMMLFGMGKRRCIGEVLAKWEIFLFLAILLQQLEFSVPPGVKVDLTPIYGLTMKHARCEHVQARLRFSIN
Method: as §1

[1] = Bidirectional permeability in Caco-2 cells; format: in vitro ADME; conditions: human
Method: as §1

Sequence of CYP2C19 (P33261 whole entry): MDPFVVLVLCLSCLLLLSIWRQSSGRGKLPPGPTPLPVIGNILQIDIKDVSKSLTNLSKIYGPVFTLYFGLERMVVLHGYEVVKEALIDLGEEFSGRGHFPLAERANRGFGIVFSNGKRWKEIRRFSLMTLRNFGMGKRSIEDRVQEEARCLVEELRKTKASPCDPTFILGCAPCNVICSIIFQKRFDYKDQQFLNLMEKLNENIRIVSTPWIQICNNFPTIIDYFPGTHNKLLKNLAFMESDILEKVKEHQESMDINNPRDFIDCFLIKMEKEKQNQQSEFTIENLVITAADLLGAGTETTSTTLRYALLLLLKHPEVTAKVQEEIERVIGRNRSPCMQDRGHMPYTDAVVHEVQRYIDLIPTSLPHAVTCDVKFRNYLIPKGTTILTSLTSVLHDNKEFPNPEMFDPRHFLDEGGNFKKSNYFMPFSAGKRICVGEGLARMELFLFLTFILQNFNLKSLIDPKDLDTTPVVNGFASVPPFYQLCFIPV
Sequence of CYP2C9 (P11712 whole entry): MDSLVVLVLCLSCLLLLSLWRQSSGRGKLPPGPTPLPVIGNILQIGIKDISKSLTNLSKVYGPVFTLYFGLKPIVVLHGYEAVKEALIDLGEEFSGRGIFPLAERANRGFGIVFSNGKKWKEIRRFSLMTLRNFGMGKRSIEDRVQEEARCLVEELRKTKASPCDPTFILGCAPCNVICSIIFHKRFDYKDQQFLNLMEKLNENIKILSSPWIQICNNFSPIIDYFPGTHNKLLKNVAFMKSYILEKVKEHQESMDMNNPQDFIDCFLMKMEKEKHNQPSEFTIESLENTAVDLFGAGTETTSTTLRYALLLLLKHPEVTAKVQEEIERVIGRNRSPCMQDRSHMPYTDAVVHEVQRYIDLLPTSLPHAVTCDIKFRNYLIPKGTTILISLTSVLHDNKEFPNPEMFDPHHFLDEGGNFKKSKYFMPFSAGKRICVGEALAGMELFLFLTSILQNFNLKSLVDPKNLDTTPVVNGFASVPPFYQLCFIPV
Sequence of CYP2D6 (P10635 whole entry): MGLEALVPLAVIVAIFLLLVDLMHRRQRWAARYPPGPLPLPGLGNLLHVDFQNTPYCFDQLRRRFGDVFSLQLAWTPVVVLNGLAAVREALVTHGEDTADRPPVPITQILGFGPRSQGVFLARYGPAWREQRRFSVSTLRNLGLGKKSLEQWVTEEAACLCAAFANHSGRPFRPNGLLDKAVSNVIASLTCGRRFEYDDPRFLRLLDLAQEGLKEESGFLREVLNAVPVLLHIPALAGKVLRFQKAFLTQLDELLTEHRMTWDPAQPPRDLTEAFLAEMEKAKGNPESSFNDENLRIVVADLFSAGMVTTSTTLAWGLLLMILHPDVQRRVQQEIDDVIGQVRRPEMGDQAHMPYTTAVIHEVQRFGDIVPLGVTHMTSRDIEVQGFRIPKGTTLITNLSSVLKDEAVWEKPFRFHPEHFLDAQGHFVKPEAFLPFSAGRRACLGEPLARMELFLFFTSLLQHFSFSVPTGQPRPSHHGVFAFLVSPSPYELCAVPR

CYP2C9 inhibition grade (in words) (CYP2C9): weak inhibitor | IC50 (CYP2C9): 33.4 µM | CYP2C19 inhibition grade (in words) (CYP2C19): weak inhibitor | IC50 (CYP2C19): 10.8 µM | Kd (ERCC1-XPF): 0.14 ± 0.01 µM | CYP2D6 inhibition grade (in words) (CYP2D6): moderate inhibitor | IC50 (CYP2D6): 2.92 µM | CYP1A2 inhibition grade (in words) (CYP1A2): moderate inhibitor | IC50 (CYP1A2): 6.51 µM | efflux ratio [1]: 27.5
SMILES: COc1ccc2nc3cc(Cl)ccc3c(Nc3ccc(O)c(CN4CCN(CCN(C(C)C)C(C)C)CC4)c3)c2c1 [Compound 6]
sensitization to cyclophosphamide (in words) (HCT-116 cells; 0.5 μM 6, 10 at 1.0 μM or 0.5 μM): sensitized the cells to cyclophosphamide | cell survival with cyclophosphamide (HCT-116 cells; 0.5 μM compound, 50 μM cyclophosphamide): 62% | cell survival at 250 μM cyclophosphamide (in words) (HCT-116 cells; 0.5 μM compound, 250 μM cyclophosphamide): almost no cells surviving
